Consider one compound from publication PMC9497135, “Structure-Based Study to Overcome Cross-Reactivity of Novel Androgen Receptor Inhibitors” (Cells, 2022).

The structures appear in SMILES notation. Positions count from the first letter of the chain named.

One assay has as its target T1, wild-type AR (Homo sapiens, UniProt P10275).
T1 construct: Full-length human wild type AR was cloned into pcDNA3.1 expression plasmid; expressed in transfected cells; host or cells: PC3
T1 sequence (P10275 1-920): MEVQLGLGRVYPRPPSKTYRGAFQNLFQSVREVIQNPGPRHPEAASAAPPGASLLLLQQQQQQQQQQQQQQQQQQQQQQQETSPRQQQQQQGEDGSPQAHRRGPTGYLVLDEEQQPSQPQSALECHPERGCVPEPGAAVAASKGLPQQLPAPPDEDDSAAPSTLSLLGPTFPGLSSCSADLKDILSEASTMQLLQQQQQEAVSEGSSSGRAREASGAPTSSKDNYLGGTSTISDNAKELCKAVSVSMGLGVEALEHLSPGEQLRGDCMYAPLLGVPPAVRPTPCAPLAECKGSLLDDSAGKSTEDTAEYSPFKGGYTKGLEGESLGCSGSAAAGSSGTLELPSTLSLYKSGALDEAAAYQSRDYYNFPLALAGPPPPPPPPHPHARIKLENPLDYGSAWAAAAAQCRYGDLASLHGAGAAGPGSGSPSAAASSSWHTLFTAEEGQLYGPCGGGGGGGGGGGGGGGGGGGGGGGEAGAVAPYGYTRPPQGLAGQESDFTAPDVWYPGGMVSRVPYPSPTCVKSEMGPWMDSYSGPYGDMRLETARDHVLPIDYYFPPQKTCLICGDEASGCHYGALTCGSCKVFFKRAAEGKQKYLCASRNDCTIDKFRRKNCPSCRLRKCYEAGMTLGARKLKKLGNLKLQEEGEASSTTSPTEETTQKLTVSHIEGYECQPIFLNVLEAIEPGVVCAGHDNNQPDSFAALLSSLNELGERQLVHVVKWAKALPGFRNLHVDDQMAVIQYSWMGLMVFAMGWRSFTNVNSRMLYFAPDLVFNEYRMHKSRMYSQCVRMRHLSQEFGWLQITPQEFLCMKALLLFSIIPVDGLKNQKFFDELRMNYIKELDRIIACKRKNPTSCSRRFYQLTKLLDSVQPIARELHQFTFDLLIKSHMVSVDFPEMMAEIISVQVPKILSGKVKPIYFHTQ
Briefly: Luciferase reporter assay, PC3 cells transfected with wild-type AR. The format is cell-based. The settings on record: in the presence of R1881. As for the experimental part:
Full-length human wild type AR was cloned into pcDNA3.1 expression plasmid (Invitrogen, Waltham, MA, USA) with a CMV promoter. The T878A mutant (T878A-AR) was generated with the Quikchange Mutagenesis Kit (Stratagene, San Diego, CA, USA) using hARWT plasmid as a template. Androgen-starved PC3 cells were seeded in 96-well plates (3000 cells/well) in RPMI 1640 + 5% CSS for 24 h followed by transfection with 50 ng of hARWT or hART878A along with 50 ng of ARR3tk-luciferase reporter construct (100 ng total plasmid DNA) and 0.3 µL/well TransIT20/20 transfection reagent (TT2020, Mirus, Madison, Wisconsin, WI, USA) for 48 h. Cells were treated with increasing amounts of test compound (0.1% final DMSO concentration) and 0.1 nM R1881 for 24 h. Cell lysis was carried out with 60 µL 1X passive lysis buffer/well (Promega, Madison, Wisconsin, WI, USA). The luminescence from 20 µL of cell lysate and 50 µL of Luciferase assay reagent (Promega, Madison, Wisconsin, WI, USA) was recorded on a TECAN M200pro plate reader.

The next assay deals with T2, Androgen Receptor ABS (Rattus norvegicus, UniProt P15207).
T2 construct: purchased
T2 sequence (P15207 647-902 limits assumed): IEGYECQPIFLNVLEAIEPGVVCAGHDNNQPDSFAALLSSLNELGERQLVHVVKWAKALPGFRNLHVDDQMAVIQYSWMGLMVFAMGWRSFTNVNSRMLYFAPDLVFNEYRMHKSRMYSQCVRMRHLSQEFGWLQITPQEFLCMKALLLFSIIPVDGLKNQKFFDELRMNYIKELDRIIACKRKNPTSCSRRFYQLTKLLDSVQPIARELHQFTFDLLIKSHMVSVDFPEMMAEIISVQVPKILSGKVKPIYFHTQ
Briefly: Androgen (DHT) displacement, Polar Screen Androgen Receptor Competitor Green Assay Kit. The settings on record: fluorescence polarization kit. The format is binding. As for the experimental part: Androgen displacement was assessed with the Polar Screen Androgen Receptor Competitor Green Assay Kit as per the instructions of the manufacturer.

Assay [1] relates to endogenous wild type AR in R1-AD1 cells. Briefly: AR transcriptional activity in R1-AD1 cells. The format is cell-based, human. The settings on record: 0.1 nM R1881.
Assay [2] deals with T3, AR (LNCaP cells, which carry the T878A AR mutation) (Homo sapiens, UniProt P10275, T878A).
T3 construct: LNCaP cells, which carry the T878A AR mutation; endogenous in cells; host or cells: LNCaP (LN-ARR2PB-eGFP)
T3 sequence (P10275 1-920 T878A): T1 sequence (P10275 1-920) with T878A
Briefly: eGFP cellular AR transcription assay in LNCaP cells (LN-ARR2PB-eGFP). The format is cell-based. The settings on record: eGFP-expressing LNCaP cells, no R1881.

For the compound `COc1c(F)cccc1-c1csc(N2CCOCC2)n1` [VPC14368, 4-(4-(3-fluoro-2-methoxyphenyl)thiazol-2-yl)morpholine], the “AR transcription, wild-type AR” value at wild-type AR is “inhibited by VPC14368 in a dose-dependent manner”. Also, the “Androgen Displacement (Yes/No)” value at Androgen Receptor ABS was “Yes”. Also, the “Agonistic effect in R1-AD1 cells” value in assay [1] was “not observed”. For the same compound, the “AR transcriptional activity in the absence of R1881” value in assay [2] is reported as “enhanced the AR transcriptional activity”.
